Consider two molecules from patent publication US9457040B2, “Effective treatment of esophageal adenocarcinoma using triciribine and related compounds” (University of South Florida, priority 2007, dated 2016).

One data set addresses PKCα (Homo sapiens, UniProt P17252). Briefly: PKCα kinase activity / phospho-PKCα-T638 immunoblot. Format: cell-based. The note with it: anti-phospho-PKCα-T638 immunoblot.
For data set [1], the system named is advanced refractory malignancies. To be noted: patients; i.v. infusion over fifteen minutes once every three weeks, 25 to 350 mg/m^2; cited from earlier work.
For data set [2], the system named is advanced squamous cell carcinoma of the cervix. To be noted: cited from earlier work.
The subject of data set [3] is metastatic colorectal adenocarcinoma. The note with it: patients; i.v. over 15 minutes 165 or 250 mg/m^2 once a week in three week intervals; cited from earlier work.
For data set [4] the following is noted: cited from earlier work.
In a further data set the test system is advanced solid cancers. To be noted: patients; i.v. days 1, 8, 15 and 22 of a 42 day cycle, 12 to 96 mg/m^2; cited from earlier work.

Consider `Cn1cc(C2=C(c3cn(CCCSC(=N)N)c4ccccc34)C(=O)NC2=O)c2ccccc21` [Ro 31-8220], for which the “kinase activity of PKCα” value at PKCα is “inhibited”.
On to `CN1N=C(N)c2cn([C@@H]3O[C@H](COP(=O)(O)O)[C@@H](O)[C@H]3O)c3ncnc1c23` [TCN-P, triciribine phosphate], for which, in data set [1], the therapeutic response result is recorded as “limited therapeutic responses” and the toxicity result was “significant toxicity”. Moreover, the “responses among twenty-one evaluable patients” value in data set [2] (5 day continuous infusion of at least 35 mg/m^2 every six weeks) is given as “only two responses were observed”. Besides, in data set [2] (metastatic or recurrent squamous cell cancer of the cervix, this dose and schedule), the “activity (authors' conclusion)” value was “limited activity”. For the same molecule, in data set [3], the clinical usefulness result is on record as “lack of clinical usefulness”. In data set [4], the “solubility relative to the parent drug” value is given as “more soluble than the parent drug”. The toxicity entry in the data set on advanced solid cancers is given as “unexpected clinical toxicity”.
